ChEMBL document CHEMBL1201862, “PubChem BioAssay data set” (2004)
Activity calls are given as the source filed them.

Experiments:
[1] = biological target: Signal transducer and activator of transcription 3 (Homo sapiens, UniProt P40763); test: STAT3 activation with BCL3 mRNA and toxicity – cell-based, […], BCL3 qPCR, cytotoxicity, late-stage follow-up, panel member STAT3 Activation (AID 2049)
[2] = STAT3 activation with BCL3 mRNA and toxicity – cell-based, STAT1 reporter, BCL3 qPCR, cytotoxicity, late-stage follow-up, panel member Cytotoxicity (AID 2049)
[3] = biological target: T1, Zinc finger protein mex-5 (Caenorhabditis elegans, UniProt Q9XUB2); test: potency of MEX-5 RNA-binding blockers – biochemical, C. elegans, fluorescence polarization, dose response (AID 1960)
T1 sequence (Q9XUB2 whole entry): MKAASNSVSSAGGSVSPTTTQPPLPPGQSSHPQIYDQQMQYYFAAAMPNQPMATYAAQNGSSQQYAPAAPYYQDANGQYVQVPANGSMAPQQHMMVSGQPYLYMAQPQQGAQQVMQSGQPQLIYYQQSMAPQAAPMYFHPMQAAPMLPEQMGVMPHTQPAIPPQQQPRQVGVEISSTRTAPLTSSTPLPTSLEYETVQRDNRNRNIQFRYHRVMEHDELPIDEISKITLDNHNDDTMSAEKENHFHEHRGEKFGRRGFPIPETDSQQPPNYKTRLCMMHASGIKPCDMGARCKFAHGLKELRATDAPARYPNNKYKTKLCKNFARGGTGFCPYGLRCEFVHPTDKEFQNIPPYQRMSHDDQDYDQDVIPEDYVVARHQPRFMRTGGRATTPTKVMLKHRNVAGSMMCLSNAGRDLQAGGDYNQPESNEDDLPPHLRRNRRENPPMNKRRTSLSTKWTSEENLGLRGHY

[4] = biological target: Female germline-specific tumor suppressor gld-1 (Caenorhabditis elegans, UniProt Q17339); test: blockers of GLD-1/TGE RNA complex formation – biochemical, fluorescence polarization, C. elegans, dose response (AID 2802);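 further: fluorescence polarization of labeled TGE RNA bound by purified gld-1 protein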
Protein Rev = Protein Rev (Human immunodeficiency virus type 1 group M subtype B (isolate HXB2)(HIV-1), UniProt P04618); test: blockers of HIV Rev/RRE RNA complex – biochemical, fluorescence polarization, HIV-1, dose response (AID 434976); set-up: species or system Human immunodeficiency virus 1
[5] = biological target: T2, RNA-binding protein pos-1 (Caenorhabditis elegans, UniProt G5EF15); test: disruptors of C. elegans POS-1 RNA interaction – biochemical, fluorescence polarization, dose response (AID 1964);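 further: purified POS-1 fused to maltose binding protein made in E. coli; potency of compounds blocking POS-1 binding to fluorescent RNA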
T2 sequence (G5EF15 whole entry): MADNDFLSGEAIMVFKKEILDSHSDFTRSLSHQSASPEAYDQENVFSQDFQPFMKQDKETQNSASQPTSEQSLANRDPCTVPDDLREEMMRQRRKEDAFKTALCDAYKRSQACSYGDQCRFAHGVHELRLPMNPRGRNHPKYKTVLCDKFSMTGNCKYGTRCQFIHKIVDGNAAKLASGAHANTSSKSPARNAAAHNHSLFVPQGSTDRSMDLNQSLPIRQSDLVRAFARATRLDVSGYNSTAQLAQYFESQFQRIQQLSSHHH

cells = assay type: functional
Salmon testes DNA = test: acridine orange-DNA binding displacement – biochemical, fluorescence polarization, cherry-picked samples, set 2, artefact control for KSHV LANA DNA-binding inhibitor project, dose response (AID 504727); set-up: species or system Salmonidae
Cytochrome P450 2C9 = Cytochrome P450 2C9 (Homo sapiens, UniProt P11712); details: Potency
[6] = protection from phage-mediated lysis, alamar blue read-out – E. coli UTI89, K1F phage, bacterial capsule biogenesis inhibitors (AID 488966); assay type: functional
[7] = Luminescence Cell-Based Dose Retest to Confirm Inhibitors of Cancer Stem Cells. [Related pubchem assays (depositor defined):AID2717, AID2721]; assay type: functional; details: Homo sapiens
[8] = Luminescence Cell-Based Dose Response HTS to Identify Inhibitors of 5'UTR Stem-Loop Driven Prion Protein mRNA Translation in H4 Neuroglioblastoma Cells. [Related pubchem assays: 1827 (Project Summary), 1813 (Primary HTS)]; assay type: functional
Vero = test: host cell viability loss, Vero E6 – synthesized analogs, cytotoxicity control for West Nile virus antiviral project, SAR follow-up (AID 2244); assay type: functional; details: Chlorocebus sabaeus
[9] = alpha-synuclein stem-loop luciferase translation blockers – H4 neuroglioma cells, luminescence, confirmation (AID 1988); assay type: functional, cell-based
[10] = luciferase reporter signal suppression in cells – H4 neuroglioma cells, luminescence, dose response (AID 1990); assay type: functional, cell-based
Aminopeptidase N = biological target: T3, Aminopeptidase N (Plasmodium falciparum FcB1/Columbia, UniProt O96935); test: malaria alanyl aminopeptidase activity blockers – biochemical, fluorogenic H-Leu-NHMec substrate, 1536-well (AID 1445); set-up: species or system Plasmodium falciparum 3D7, 3D7
T3 sequence (O96935 whole entry): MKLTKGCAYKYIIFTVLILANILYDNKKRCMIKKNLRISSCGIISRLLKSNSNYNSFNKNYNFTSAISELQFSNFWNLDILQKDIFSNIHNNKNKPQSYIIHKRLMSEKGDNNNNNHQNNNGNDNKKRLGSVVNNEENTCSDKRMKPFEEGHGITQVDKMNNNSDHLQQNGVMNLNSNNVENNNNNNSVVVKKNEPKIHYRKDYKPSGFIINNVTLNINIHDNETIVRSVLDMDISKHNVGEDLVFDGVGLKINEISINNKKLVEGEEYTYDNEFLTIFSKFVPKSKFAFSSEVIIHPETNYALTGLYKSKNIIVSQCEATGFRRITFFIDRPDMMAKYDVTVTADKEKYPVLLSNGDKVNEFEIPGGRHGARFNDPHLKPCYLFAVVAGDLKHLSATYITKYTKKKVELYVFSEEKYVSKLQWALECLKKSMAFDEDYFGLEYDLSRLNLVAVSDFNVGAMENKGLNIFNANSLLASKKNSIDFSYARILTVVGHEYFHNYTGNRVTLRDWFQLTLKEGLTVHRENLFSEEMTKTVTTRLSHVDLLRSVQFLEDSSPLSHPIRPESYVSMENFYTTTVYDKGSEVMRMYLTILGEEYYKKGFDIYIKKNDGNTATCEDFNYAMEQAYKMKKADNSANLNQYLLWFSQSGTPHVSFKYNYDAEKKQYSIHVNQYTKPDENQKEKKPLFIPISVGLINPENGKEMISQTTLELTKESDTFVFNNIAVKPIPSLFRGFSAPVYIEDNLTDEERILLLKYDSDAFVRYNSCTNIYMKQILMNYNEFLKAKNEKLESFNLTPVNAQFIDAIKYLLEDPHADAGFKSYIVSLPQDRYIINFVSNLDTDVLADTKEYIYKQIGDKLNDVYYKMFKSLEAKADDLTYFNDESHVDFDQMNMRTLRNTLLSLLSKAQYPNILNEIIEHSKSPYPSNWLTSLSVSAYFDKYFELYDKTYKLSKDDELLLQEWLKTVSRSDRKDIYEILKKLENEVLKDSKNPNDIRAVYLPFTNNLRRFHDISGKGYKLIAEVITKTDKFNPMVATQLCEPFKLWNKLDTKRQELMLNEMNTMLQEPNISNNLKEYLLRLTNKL

ORF 73 = ORF 73 (Human herpesvirus 8, UniProt O40947); test: KSHV LANA DNA-binding disruption – biochemical, fluorescence polarization, cherry-picked samples, dose response (AID 504725); set-up: species or system Human gammaherpesvirus 8;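 further: fluorescence polarization of a labeled DNA duplex reporting LANA DNA binding; potency is for inhibitors that block LANA binding to the DNA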
[11] = biological target: T4, Alkaline phosphatase, tissue-nonspecific isozyme (Homo sapiens, UniProt P05186)
T4 sequence (P05186 whole entry): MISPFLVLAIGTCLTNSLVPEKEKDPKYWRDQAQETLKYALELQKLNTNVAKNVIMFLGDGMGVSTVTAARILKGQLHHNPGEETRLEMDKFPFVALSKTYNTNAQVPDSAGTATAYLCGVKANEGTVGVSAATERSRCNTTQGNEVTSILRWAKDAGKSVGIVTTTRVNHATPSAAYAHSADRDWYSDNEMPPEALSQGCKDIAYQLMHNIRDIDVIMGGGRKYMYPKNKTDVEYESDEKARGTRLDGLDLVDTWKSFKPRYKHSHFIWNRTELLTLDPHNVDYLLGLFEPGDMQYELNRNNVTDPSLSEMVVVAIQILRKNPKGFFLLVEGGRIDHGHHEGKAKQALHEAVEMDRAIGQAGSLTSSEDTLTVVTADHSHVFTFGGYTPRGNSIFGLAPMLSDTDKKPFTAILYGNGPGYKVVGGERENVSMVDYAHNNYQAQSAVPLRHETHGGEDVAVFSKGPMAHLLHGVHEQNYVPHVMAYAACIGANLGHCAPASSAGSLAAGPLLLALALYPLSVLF

Chain of Protein Rev (P04618 whole entry, the tested form may be a part): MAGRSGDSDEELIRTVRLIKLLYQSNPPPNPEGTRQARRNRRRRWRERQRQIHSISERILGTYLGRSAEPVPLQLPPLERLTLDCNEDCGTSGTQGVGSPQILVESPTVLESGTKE
Chain of Cytochrome P450 2C9 (P11712 whole entry): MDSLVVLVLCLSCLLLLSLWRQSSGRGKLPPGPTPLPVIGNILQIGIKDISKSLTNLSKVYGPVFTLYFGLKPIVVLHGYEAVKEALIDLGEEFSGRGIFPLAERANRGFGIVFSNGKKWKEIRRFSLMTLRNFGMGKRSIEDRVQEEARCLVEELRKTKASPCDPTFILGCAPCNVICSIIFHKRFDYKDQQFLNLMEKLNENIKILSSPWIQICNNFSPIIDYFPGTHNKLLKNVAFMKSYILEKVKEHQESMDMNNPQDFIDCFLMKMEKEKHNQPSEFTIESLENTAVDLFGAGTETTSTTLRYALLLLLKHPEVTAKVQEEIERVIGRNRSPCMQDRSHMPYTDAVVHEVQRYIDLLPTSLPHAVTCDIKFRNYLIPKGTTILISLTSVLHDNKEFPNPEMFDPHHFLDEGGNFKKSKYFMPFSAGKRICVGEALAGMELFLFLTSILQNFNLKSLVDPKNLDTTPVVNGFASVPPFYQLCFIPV
Chain of Female germline-specific tumor suppressor gld-1 (Q17339 whole entry): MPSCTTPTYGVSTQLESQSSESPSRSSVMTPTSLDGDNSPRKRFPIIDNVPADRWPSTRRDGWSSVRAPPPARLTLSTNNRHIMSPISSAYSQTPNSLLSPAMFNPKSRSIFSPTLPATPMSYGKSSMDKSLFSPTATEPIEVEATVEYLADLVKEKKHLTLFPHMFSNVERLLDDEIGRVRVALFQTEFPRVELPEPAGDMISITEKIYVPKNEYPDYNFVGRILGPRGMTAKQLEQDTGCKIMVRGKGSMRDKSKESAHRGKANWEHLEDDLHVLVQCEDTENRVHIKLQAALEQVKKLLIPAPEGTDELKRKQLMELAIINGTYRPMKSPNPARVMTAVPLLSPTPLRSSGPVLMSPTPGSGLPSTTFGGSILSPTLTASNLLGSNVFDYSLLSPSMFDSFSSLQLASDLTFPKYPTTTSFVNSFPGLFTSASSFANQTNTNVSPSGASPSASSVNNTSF
Chain of Signal transducer and activator of transcription 3 (P40763 whole entry): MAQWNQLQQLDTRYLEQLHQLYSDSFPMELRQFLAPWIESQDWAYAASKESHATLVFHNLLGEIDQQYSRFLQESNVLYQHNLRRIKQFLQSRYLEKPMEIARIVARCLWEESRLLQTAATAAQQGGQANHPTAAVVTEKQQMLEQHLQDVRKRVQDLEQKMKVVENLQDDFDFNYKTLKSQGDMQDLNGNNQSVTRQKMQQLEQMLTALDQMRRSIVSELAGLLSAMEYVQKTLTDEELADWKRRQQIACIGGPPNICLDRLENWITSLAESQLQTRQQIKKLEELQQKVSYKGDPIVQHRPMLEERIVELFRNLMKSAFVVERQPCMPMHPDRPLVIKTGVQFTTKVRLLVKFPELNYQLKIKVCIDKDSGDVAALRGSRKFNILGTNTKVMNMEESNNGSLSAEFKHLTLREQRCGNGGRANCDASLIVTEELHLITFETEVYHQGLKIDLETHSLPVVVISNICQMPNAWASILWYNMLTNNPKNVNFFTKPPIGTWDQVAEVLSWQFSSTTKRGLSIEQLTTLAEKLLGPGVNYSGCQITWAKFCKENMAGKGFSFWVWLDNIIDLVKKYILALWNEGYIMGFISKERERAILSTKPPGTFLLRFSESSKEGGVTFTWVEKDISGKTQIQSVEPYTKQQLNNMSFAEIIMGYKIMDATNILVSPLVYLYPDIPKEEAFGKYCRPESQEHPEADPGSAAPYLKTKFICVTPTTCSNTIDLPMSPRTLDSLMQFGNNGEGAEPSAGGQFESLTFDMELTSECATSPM
Chain of ORF 73 (O40947 whole entry): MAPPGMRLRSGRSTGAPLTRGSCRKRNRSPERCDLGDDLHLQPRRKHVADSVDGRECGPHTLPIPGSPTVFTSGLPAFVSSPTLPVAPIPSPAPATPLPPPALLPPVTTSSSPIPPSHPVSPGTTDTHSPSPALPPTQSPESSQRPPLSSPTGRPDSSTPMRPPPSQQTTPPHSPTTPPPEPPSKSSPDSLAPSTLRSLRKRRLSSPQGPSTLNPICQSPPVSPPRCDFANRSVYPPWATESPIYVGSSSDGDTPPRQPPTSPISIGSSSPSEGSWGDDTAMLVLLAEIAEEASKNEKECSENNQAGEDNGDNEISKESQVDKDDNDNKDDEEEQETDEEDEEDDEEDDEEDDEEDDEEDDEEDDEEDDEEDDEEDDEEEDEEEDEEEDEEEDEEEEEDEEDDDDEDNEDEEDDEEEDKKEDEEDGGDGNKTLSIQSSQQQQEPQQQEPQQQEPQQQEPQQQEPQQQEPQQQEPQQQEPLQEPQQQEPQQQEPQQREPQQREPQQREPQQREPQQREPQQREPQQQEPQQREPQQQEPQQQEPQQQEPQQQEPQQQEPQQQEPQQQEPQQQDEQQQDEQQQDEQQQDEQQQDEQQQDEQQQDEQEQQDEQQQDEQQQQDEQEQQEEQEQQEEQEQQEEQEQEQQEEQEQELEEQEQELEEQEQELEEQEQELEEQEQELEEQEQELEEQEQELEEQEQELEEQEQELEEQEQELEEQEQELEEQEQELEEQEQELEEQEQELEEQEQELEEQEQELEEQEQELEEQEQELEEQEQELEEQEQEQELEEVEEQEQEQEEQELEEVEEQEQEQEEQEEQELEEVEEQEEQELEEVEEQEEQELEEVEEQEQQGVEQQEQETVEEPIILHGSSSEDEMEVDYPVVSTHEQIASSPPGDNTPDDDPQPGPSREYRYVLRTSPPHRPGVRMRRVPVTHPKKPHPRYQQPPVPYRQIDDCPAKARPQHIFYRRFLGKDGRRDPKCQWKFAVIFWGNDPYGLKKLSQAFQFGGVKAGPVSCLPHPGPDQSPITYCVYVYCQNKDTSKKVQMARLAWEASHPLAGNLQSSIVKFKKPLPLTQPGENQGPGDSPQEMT

In the case of `COc1cc(NC(=O)c2cc(C3CC3)on2)c(OC)cc1Cl`, the EC50 [1] is reported as 0.00219 µM (active) and the CC50 [2] is reported as > 55.7 µM (inactive).
With `COC(=O)[C@@]1(C#N)[C@@H]2C=CC(C(C)=O)=CN2[C@@H](C(N)=O)[C@@H]1c1ccc(F)cc1` the EC50 [3] was 11.4 µM (active), the IC50 [4] was 15.1 µM (inactive) and the IC50 (Protein Rev) was 18.3 µM (not active). For the same compound, the EC50 [5] was 4.6 µM (active).
With `O=c1oc2ccccc2nc1/C=C(\O)c1ccc(Br)cc1` the IC50 (cells) was 5 µM (active) and the AC50 (Salmon testes DNA) was 56.9 µM (active).
With `COCC#Cc1ccc(C2C(C)CCC3C(=O)N4C(CCC(C)C4c4ccc(C#CCOC)cc4)C(=O)N32)cc1` (stereo not given) the AC50 (Cytochrome P450 2C9) was 7.94 µM (inconclusive).
In the case of `Cc1nc(SCc2ccccc2)c([N+](=O)[O-])[nH]1`, the IC50 [6] is reported as > 150 µM (active).
For `CCN(CC)CCCN=C(S)N1CCN(c2nc(-c3ccc(F)cc3)cs2)CC1`, the AC50 [7] was 1 µM (active), the EC50 [8] was > 120 µM (not active) and the CC50 (Vero) was 13.3 µM (active). For the same compound, the EC50 [9] was > 120 µM (not active) and the EC50 [10] was > 120 µM (not active).
For `CS(=O)(=O)Nc1nc2n(n1)C(c1ccccc1)C=C(c1ccc(Br)cc1)N2` (stereo not given), the EC50 [3] was 6.39 µM (active), the IC50 (Aminopeptidase N) was 45.3 µM (active) and the EC50 [5] was > 300 µM (not active). For the same compound, the AC50 (ORF 73) was 8.07 µM (active).
For `CCN(CC)c1ccc(NC(=O)Cn2c(C(C)NC(=O)c3ccc(C)cc3)nc3ccccc32)cc1` (stereo not given), the EC50 [11] was > 100 µM (not active).
